Reference: paper PMC9960553, ““Dual Anta-Inhibitors” of the A2A Adenosine Receptor and Casein Kinase CK1delta: Synthesis, Biological Evaluation, and Molecular Modeling Studies” (Pharmaceuticals, 2023)

What was measured:
human recombinant A2AAR = molecular target: T1, human recombinant A2AAR (Homo sapiens, UniProt P29274); test: [3H]NECA displacement binding in CHO cell membranes; details: mean ± standard error, read-out: KiA2A
T1 construct: expressed in transfected cells; host or cells: CHO cells (membranes)
Experimental: (§1) Compounds 5, 6, 8–12, 15–21, and 23–25 were evaluated in binding studies at human recombinant A1, A2A, and A3 ARs, stably transfected in Chinese hamster ovary (CHO) cells. [^3H]CCPA (2-chloro-N^6-cyclopentylAdo), [^3H]NECA (5’-N-ethylcarboxamidoAdo), and [^3H]HEMADO (2-hexynyl-N^6-methylAdo) were used as the, respective, radioligands. All compounds were also tested at the A2BARs by inhibition of NECA-stimulated adenylyl cyclase activity, using the GloSensor cAMP assay, but none of them were active at a concentration up to 30 μM [35]. The results, together with the data of the reference adenine derivative 1, are reported in Table 2 as Ki values in μM (± standard errors). In the table, the IC50 values (μM) of the CK1δ inhibitory activity are also indicated. […] We called the compounds endowed with receptor antagonist behavior combined with an enzyme inhibitory activity “dual anta-inhibitors”.
(§2) All of the pharmacological methods followed the procedures as described earlier. In brief, the membranes for radioligand binding were prepared from CHO cells stably transfected with human adenosine receptor subtypes through two centrifugations at different speeds. The first low-speed […] centrifugation allowed for the removal of cell fragments and nuclei, while the second, performed at high speed (100,000× g), allowed for the precipitation of the crude membrane fractions. The resulting membrane pellet was resuspended in the buffer used for the respective binding experiments, frozen in liquid nitrogen, and stored in aliquots at −80 °C.
(§3) The binding affinity of the novel compounds was evaluated using radioligand competition experiments in CHO cells stably expressing hA1AR, hA2AAR, hA3AR subtypes, as early described. Results were expressed as Ki values (dissociation constants), which were calculated with the program GraphPad (GraphPad Software, San Diego, CA, USA). Each concentration was tested three–five times in duplicate and the values given as the mean ± standard error (S.E.). The potency of compounds at the hA2BAR (expressed on CHO cells) was determined through a GloSensor cAMP Assay.

human recombinant A3AR = molecular target: T2, human recombinant A3AR (Homo sapiens, UniProt P0DMS8); test: [3H]HEMADO displacement binding in CHO cell membranes; details: mean ± standard error, read-out: KiA3
T2 construct: expressed in transfected cells; host or cells: CHO cells (membranes)
T2 sequence (P0DMS8 1-318): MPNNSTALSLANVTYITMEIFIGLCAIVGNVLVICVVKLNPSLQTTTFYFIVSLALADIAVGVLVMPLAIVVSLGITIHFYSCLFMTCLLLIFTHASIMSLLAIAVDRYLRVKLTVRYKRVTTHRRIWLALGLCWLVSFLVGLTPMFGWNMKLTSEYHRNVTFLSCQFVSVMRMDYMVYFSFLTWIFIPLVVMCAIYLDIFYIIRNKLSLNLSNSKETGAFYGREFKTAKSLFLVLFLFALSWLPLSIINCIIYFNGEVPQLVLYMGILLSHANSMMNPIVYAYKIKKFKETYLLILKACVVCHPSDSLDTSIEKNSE
Experimental: as §1, §2, §3

human recombinant A1AR = molecular target: T3, human recombinant A1AR (Homo sapiens, UniProt P30542); test: [3H]CCPA displacement binding in CHO cell membranes; details: mean ± standard error, read-out: KiA1
T3 construct: expressed in transfected cells; host or cells: CHO cells (membranes)
T3 sequence (P30542 1-326): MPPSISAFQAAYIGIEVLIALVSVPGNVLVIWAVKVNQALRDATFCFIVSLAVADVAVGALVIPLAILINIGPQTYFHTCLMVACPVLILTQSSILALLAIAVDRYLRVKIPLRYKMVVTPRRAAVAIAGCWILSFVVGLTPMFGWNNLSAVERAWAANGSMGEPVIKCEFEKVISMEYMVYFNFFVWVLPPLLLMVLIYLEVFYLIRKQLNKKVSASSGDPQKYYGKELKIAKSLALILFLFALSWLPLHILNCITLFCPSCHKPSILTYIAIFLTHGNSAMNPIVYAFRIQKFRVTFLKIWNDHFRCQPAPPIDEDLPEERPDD
Experimental: as §1, §2, §3

truncated CK1δ = molecular target: T4, truncated CK1δ (Homo sapiens, UniProt P48730); test: CK1δ luminescent kinase assay (Kinase-Glo); type: biochemical; details: for remaining activity at 10 µM / remaining activity at 40 µM: CK1δ residual activity; for remaining activity at 10 µM: compound at 10 μM, read-out: % Residual Activity at 10 μM ± sd; for remaining activity at 40 µM: compound at 40 μM, read-out: % Residual Activity at 40 μM ± sd; for IC50: truncated CK1δ, ATP 2 μM, read-out: IC50 (μM), CK1δ inhibition
T4 construct: recombinant human, GST-tagged, aa 1-294; GST; purchased Merck Millipore, Merck KGaA, Darmstadt, Germany
T4 sequence (P48730 1-294): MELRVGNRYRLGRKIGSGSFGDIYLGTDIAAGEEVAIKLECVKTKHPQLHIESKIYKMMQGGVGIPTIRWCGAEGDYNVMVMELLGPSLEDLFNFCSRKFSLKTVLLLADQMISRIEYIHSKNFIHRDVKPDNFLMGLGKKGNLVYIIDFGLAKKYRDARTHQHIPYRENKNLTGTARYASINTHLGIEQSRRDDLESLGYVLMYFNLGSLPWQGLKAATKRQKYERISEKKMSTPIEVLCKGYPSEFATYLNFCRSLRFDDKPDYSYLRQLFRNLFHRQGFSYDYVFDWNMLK
Experimental: Luminescent assays were performed in white 96-well plates in a 40 μL final volume with buffer containing 50 mM HEPES (pH 7.5), 1 mM EDTA, 1 mM EGTA, and 15 mM MgCl2. In a typical assay, 10 μL of inhibitor solution (desired concentrations were obtained by diluting a starting 10 mM solution in DMSO) and 10 μL of enzyme solution were added to the well, followed by 20 μL of assay buffer containing casein substrate (Sigma-Aldrich, Merck KGaA, Darmstadt, Germany, casein solution from bovine milk, 5% in water) and ATP, at a final concentration of 0.05% and 2 μM, respectively. […] After 60 min of incubation at 30 °C, the enzymatic reactions were stopped with the addition of 40 μL of KinaseGlo reagent. […] Data were analyzed using Excel and GraphPad Prism software (version 8.0).

T1 sequence (P29274 whole entry): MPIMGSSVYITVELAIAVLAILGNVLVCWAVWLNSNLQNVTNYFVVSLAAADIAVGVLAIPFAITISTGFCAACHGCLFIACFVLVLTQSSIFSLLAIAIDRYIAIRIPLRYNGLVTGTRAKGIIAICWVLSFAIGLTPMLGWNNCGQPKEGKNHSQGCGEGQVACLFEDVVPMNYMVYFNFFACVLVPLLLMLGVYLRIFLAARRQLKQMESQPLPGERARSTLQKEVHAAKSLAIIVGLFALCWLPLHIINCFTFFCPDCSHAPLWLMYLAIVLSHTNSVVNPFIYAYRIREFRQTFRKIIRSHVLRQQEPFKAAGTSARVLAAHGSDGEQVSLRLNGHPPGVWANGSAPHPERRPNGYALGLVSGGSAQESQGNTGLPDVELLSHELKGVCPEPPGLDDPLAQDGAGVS

SMILES	Ki (human recombinant A2AAR)	Ki (human recombinant A3AR)	Ki (human recombinant A1AR)	remaining activity at 10 µM (truncated CK1δ)	remaining activity at 40 µM (truncated CK1δ)	IC50 (truncated CK1δ)	melting point
c1ccc(CNc2nc(NCc3nc4ccccc4[nH]3)c3ncn(C4CCCC4)c3n2)cc1 [Compound 16, N^6-((1H-benzo[d]imidazol-2-yl)methyl)-N^2-benzyl-9-cyclopentyl-9H-purine-2,6-diamine]	718 ± 149 nM	432 ± 25 nM	> 30000 nM	26 ± 7.6%	46 ± 31%	4.76 ± 0.3 µM	–
O=C(NCc1ccccc1)Nc1nc(Cl)nc2c1ncn2C1CCCC1 [Compound 18, 1-Benzyl-3-(2-chloro-9-cyclopentyl-9H-purin-6-yl)urea]	> 30000 nM	> 30000 nM	> 30000 nM	38 ± 6%	29 ± 3.9%	3.37 ± 2.5 µM	–
COC(=O)CNc1nc(Cl)nc2c1ncn2C1CCCC1 [Compound 19, Methyl (2-chloro-9-cyclopentyl-9H-purin-6-yl)glycinate]	13500 ± 980 nM	14800 ± 3010 nM	20700 ± 1870 nM	23 ± 2.4%	44 ± 2.6%	2.55 ± 0.2 µM	–
O=C(CNc1nc(Cl)nc2c1ncn2C1CCCC1)NCc1ccccc1 [Compound 20]	> 30000 nM	–	> 30000 nM	32 ± 16%	29 ± 12%	1.87 ± 0.2 µM	–
N#CCNc1nc(Cl)nc2c1ncn2C1CCCC1 [Compound 21, 2-((2-Chloro-9-cyclopentyl-9H-purin-6-yl)amino)acetonitrile]	3480 ± 312 nM	5960 ± 1020 nM	8660 ± 1520 nM	13 ± 24%	25 ± 9.6%	0.36 ± 0.1 µM	–

Second part, the compound after the results:

Ki (human recombinant A2AAR)	Ki (human recombinant A3AR)	Ki (human recombinant A1AR)	remaining activity at 10 µM (truncated CK1δ)	remaining activity at 40 µM (truncated CK1δ)	IC50 (truncated CK1δ)	melting point	SMILES
1170 ± 37 nM	151 ± 15 nM	1340 ± 279 nM	27 ± 20%	14 ± 9.7%	0.66 ± 0.2 µM	100 to 101 °C	Clc1nc(NCCc2ccccc2)c2ncn(C3CCCC3)c2n1 [Compound 23, 2-chloro-N^6-(2-phenylethyl)-9-cyclopentyladenine]
3340 ± 749 nM	1270 ± 289 nM	692 ± 88 nM	26 ± 6.7%	11 ± 19%	0.73 ± 0.1 µM	177 to 179 °C	Clc1nc(NCCCc2ccccc2)c2ncn(C3CCCC3)c2n1 [Compound 24, 2-chloro-9-cyclopentyl-N-(3-phenylpropyl)-9H-purin-6-amine]
2650 ± 381 nM	–	10800 ± 2040 nM	31 ± 12%	14 ± 4.3%	1.69 ± 1 µM	–	Clc1ccc(CCNc2nc(Cl)nc3c2ncn3C2CCCC2)cc1 [Compound 25, 2-Chloro-N-(4-chlorophenethyl)-9-cyclopentyl-9H-purin-6-amine]
